Format in all cases: cell-based
One experiment deals with A431 (EGFR-WT). The experiment in a line: Cell proliferation assay (CellTiter-Glo), A431 cells. To be noted: Homo sapiens, A-431, 72 hrs, CTG assay, * = average of multiple measurements. Here is the method: (§1) I. Cell proliferation assay (i) Reagents and consumables • Fetal bovine serum (FBS) (GBICO, Cat #10099-141); • CellTiter-Glo® Luminescent Cell Viability Assay Kit (Promega, Cat #G7572); • Black transparent flat-bottomed 96-well plate (Corning®, Cat #3603).
(§2) • SpectraMax Multi-Label Microplate Detector MD, 2104-0010A; • CO2 incubator, Thermo Scientific 3100 Series; • Biosafety cabinet, Thermo Scientific, 1300 Series type A2; • Inverted microscope, Olympus, CKX41SF; • Siemens refrigerator KK25E76TI. (iii) Cell lines and culture conditions
(§3) (iv) Experimental procedures 1. Cell culture and seeding: • (1) Cells in the logarithmic growth phase were harvested, and counted using a platelet counter. Cell viability was detected by the trypan blue exclusion assay to ensure that the cell viability was above 90%. • (2) The cell concentration was adjusted to achieve the final density; and 90 μL of the cell suspension was added to the 96-well plate. • (3) The cells were incubated in the 96-well plate overnight at 37° C. in the presence of 5% CO2 with 95% humidity. 2. TO benchmark data: • (1) 10 μL of PBS was added to each well of the TO flat plate containing the cells. • (2) The CTG reagent was thawed, and the cell plate was equilibrated to room temperature for 30 min. • (3) An equal volume of CTG solution was added to each well. • (4) The cells were shaken for 5 min on an orbital shaker for lysis. • (5) The cell plate was left at room temperature for 20 min to stabilize luminescent signals. • (6) The values of TO luminescent signals were read. 3. Compound dilution and addition • (1) According to the compound information table, a corresponding volume of DMSO was added to the corresponding compound powder to prepare a 10 mM stock solution. • (2) Compound solutions diluted at 1000 fold and 3.16 fold were prepared. • (3) The compound solution diluted at 1000 fold was diluted at 100 fold with PBS, to prepare the compound solutions at 10 fold in 9 concentrations, with the maximum concentration of […]; and the compound solution was diluted at 3.16 fold. 10 μL of medicament solution was added to each well of the seeded 96-well plate. Three replicate wells were provided for each concentration of the compound, and the final concentration of DMSO was 0.1%. • (4) Cells were placed in the 96-well plate containing the medicament and subsequently cultured for 72 hrs at 37° C. in the presence of 5% CO2 with 95% humidity, and then, CTG assay was conducted. 4. Reading of luminescent signals • (1) The CTG reagent was thawed, and the cell plate was equilibrated to room temperature for 30 min. • (2) An equal volume of CTG solution was added to each well. • (3) The cells were shaken for 5 min on an orbital shaker for lysis.
(§4) (4) The cell plate was left at room temperature for 20 min to stabilize the luminescent signals. • (5) Luminescent values were read. Data processing
(§5) The data were analyzed using software GraphPad Prism 7.0, and fitted by the nonlinear S-curve regression to obtain a dose-effect curve, based on which the IC50 value (unit: nM) was calculated, with the specific test results shown in Table 1.
(§6) Cell viability (%)=(Lum test medicament-Lum culture medium control)/(Lum cell control-Lum culture medium control)×100%.
For orientation: ATP-based viability assays read luminescence as a measure of living cells.

Experiment [1] deals with Ba/F3 EGFR-D770-N771ins_SVD (Homo sapiens, UniProt P00533, DUP768-770, cells depend on it). The experiment in a line: Cell proliferation assay (CellTiter-Glo), Ba/F3 EGFR-D770-N771ins_SVD cells. To be noted: 72 hrs, CTG assay, * = average of multiple measurements, read-out: Ba/F3 EGFR-D770-N771ins_SVD (nM), IC50 of cell proliferation. Here is the method: as §1, §2, §3, §4, §5, §6
Sequence of Ba/F3 EGFR-D770-N771ins_SVD (P00533 with tags, fused parts or gaps DUP768-770): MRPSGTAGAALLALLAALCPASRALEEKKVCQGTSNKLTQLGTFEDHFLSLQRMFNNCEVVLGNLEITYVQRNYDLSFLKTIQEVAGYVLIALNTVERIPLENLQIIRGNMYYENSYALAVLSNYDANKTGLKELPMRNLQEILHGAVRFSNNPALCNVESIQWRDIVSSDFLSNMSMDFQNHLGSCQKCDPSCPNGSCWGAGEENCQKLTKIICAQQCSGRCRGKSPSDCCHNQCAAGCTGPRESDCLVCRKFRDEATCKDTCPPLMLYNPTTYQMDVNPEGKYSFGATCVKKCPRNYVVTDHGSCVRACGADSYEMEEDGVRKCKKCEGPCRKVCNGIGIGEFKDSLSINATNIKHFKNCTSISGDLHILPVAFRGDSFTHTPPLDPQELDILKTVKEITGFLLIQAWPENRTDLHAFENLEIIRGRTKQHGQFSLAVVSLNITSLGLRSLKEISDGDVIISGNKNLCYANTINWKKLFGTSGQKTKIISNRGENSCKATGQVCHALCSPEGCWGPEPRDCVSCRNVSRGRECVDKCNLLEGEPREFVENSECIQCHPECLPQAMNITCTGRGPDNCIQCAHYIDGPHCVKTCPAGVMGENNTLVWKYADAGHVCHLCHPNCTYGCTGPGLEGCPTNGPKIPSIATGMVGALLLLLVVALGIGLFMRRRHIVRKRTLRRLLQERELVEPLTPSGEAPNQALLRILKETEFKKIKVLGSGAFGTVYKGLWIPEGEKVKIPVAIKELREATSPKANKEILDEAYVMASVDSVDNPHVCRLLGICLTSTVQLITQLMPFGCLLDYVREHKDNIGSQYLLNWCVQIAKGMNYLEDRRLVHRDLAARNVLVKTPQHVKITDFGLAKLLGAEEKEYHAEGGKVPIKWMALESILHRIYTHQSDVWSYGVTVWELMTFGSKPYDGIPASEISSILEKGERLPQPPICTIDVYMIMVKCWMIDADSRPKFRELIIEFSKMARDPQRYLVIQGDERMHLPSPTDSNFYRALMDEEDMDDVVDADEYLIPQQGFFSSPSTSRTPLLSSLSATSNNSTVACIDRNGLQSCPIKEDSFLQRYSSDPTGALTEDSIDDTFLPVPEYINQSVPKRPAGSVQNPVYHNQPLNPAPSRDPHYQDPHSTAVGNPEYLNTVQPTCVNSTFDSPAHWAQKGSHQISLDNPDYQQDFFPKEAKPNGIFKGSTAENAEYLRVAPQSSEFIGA

Experiment [2] addresses Ba/F3 EGFR-V769_D770insASV (Homo sapiens, UniProt P00533, DUP767-769, cells depend on it). The experiment can be described thus: Cell proliferation assay (CellTiter-Glo), Ba/F3 EGFR-V769_D770insASV cells. The following applies: 72 hrs, CTG assay, * = average of multiple measurements, read-out: Ba/F3 EGFR-V769_D770insASV (nM), IC50 of cell proliferation. Here is the method:
as §1, §2, §3, §4, §5, §6

The term IC50 denotes the midpoint of a concentration-inhibition curve.

Sequence of Ba/F3 EGFR-V769_D770insASV (P00533 with tags, fused parts or gaps DUP767-769): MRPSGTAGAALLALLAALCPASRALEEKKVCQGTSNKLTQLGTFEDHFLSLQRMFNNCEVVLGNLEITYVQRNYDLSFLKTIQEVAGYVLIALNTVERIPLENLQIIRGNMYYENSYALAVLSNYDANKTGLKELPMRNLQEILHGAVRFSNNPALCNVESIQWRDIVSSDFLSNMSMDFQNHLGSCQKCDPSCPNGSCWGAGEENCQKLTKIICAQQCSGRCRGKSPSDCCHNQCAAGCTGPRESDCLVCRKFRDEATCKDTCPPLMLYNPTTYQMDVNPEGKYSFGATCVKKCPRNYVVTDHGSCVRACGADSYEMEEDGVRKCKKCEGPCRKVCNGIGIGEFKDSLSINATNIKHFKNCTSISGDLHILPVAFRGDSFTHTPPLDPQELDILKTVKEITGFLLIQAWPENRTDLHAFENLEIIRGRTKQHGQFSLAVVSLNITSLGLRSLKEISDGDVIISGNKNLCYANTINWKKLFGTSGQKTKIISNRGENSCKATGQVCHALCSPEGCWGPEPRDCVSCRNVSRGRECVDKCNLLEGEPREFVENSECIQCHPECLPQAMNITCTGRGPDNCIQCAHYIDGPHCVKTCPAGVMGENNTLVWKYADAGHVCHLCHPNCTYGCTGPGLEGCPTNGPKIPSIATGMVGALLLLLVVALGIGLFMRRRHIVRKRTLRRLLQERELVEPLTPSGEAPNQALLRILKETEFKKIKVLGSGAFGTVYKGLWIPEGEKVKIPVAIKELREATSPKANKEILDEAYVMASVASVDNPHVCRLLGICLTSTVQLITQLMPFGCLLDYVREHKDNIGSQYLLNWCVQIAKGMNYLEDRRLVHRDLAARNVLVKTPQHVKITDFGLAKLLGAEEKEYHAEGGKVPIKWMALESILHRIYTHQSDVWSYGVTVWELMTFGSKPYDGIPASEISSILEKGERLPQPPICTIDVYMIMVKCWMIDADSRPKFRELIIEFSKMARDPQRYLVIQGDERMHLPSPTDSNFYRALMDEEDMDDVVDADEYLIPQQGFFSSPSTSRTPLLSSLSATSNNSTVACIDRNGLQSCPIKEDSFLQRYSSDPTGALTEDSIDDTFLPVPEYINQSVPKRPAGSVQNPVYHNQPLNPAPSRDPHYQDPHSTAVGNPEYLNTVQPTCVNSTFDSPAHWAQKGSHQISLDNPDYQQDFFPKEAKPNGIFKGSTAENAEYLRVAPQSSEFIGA

As to `C=CC(=O)Nc1cc(Nc2cc(N3CC(C)(C)c4ncccc43)ccn2)c(OC)cc1N(C)CCN(C)C` [Example 1, N-(5-((4-(3,3-dimethyl-2,3-dihydro-1H-pyrrolo[3,2-b]pyridin-1-yl)pyridin-2-yl)amino)-2-((2-(dimethylamino)ethyl)(methyl)amino)-4-methoxyphenyl)acrylamide], it took 898 nM to reach half-maximal inhibition in the experiment on A431 (EGFR-WT) (IC50). In addition, the GI50 in experiment [1] was determined as 60.2 nM; in experiment [2], 69.8 nM.

The molecule `C=CC(=O)Nc1cc(Nc2cc(N3CC(C)(C)c4nc(C)ccc43)ccn2)c(OC)cc1N(C)CCN(C)C` [Example 2, N-(2-((2-(dimethylamino)ethyl) (methyl)amino)-4-methoxy-5-((4-(3,3,5-trimethyl-2,3-dihydro-1H-pyrrolo[3,2-b]pyridin-1-yl)pyridin-2-yl)amino)phenyl)acrylamide] returned an IC50 in the experiment on A431 (EGFR-WT) of 1070 nM. Moreover, the GI50 is 60.4 nM in experiment [1] and 97.9 nM in experiment [2].

In the case of `C=CC(=O)Nc1cc(Nc2cc(N3CC(C)(C)c4nc(C)ccc43)ccn2)c(OC)cc1N1CCC[C@@H]1CN(C)C` [Example 3], in the experiment on A431 (EGFR-WT), the IC50 amounted to 841 nM. Further, the GI50 in experiment [1] came out at 66.3 nM; in experiment [2], 111 nM.

Consider `C=CC(=O)Nc1cc(Nc2cc(N3CC(C)(C)c4ncccc43)ccn2)c(OC)cc1N1CCC[C@@H]1CN(C)C` [Example 4, (R)-N-(5-((4-(3,3-dimethyl-2,3-dihydro-1H-pyrrolo[3,2-b]pyridin-1-yl)pyridin-2-yl)amino)-2-(2-((dimethylamino)methyl)pyrrolidin-1-yl)-4-methoxyphenyl)acrylamide], for which, in the experiment on A431 (EGFR-WT), the IC50 is 964 nM. Moreover, the GI50 in experiment [1] was 47.2 nM; in experiment [2] it was 83.1 nM.

As to `C=CC(=O)Nc1cc(Nc2nccc(N3CC(C)(C)c4nc(C)ccc43)n2)c(OC)cc1N(C)CCN(C)C` [Example 5, N-(2-((2-(dimethylamino)ethyl) (methyl)amino)-4-methoxy-5-((4-(3,3,5-trimethyl-2,3-dihydro-1H-pyrrolo[3,2-b]pyridin-1-yl)pyrimidin-2-yl)amino)phenyl)acrylamide], the concentration for half-maximal inhibition (IC50) with A431 (EGFR-WT) came to 411 nM. Further, the GI50 in experiment [1] was found to be 26.6 nM; in experiment [2], 31.4 nM.

With `C=CC(=O)Nc1cc(Nc2ncnc(N3CC(C)(C)c4nc(C)ccc43)n2)c(OC)cc1N(C)CCN(C)C` [Example 8, N-(2-((2-(dimethylamino)ethyl) (methyl)amino)-4-methoxy-5-((4-(3,3,5-trimethyl-2,3-dihydro-1H-pyrrolo[3,2-b]pyridin-1-yl)-1,3,5-triazin-2-yl)amino)phenyl)acrylamide], in the experiment with A431 (EGFR-WT), the midpoint of inhibition, the IC50, lay at 71.8 nM. The GI50 turned out to be 12.5 nM in experiment [1] and 17.9 nM in experiment [2].

Consider `C=CC(=O)Nc1cc(Nc2cc(N3CC(C)(C)c4nc(C)ccc43)ncn2)c(OC)cc1N(C)CCN(C)C` [Example 11, N-(2-((2-(dimethylamino)ethyl) (methyl)amino)-4-methoxy-5-((6-(3,3,5-trimethyl-2,3-dihydro-1H-pyrrolo[3,2-b]pyridin-1-yl)pyrimidin-4-yl)amino)phenyl)acrylamide], for which the IC50 in the experiment with A431 (EGFR-WT) came to 293 nM. The GI50 in experiment [1] was 40.4 nM; in experiment [2], 73.9 nM.

As to `C=CC(=O)Nc1cc(Nc2cc(N3CC(C)(C)c4ncccc43)ncn2)c(OC)cc1N1CCC[C@@H]1CN(C)C` [Example 12, (R)-N-(5-((6-(3,3-dimethyl-2,3-dihydro-1H-pyrrolo[3,2-b]pyridin-1-yl)pyrimidin-4-yl)amino)-2-(2-((dimethylamino)methyl)pyrrolidin-1-yl)-4-methoxyphenyl)acrylamide], in the experiment on A431 (EGFR-WT), 89.9 nM corresponded to half-maximal inhibition (IC50). In addition, the GI50 in experiment [1] stood at 35.3 nM; in experiment [2] it was 70.8 nM.

As to `C=CC(=O)Nc1cc(Nc2cc(N3CC(C)(C)c4nc(C)ccc43)ncn2)c(OC)cc1N1CCC[C@@H]1CN(C)C` [Example 13, (R)-N-(5-((6-(3,3,5-trimethyl-2,3-dihydro-1H-pyrrolo[3,2-b]pyridin-1-yl)pyrimidin-4-yl)amino)-2-(2-((dimethylamino)methyl)pyrrolidin-1-yl)-4-methoxyphenyl)acrylamide], in the experiment with A431 (EGFR-WT), the IC50 stood at 101 nM. Further, the GI50 in experiment [1] was 42.1 nM; in experiment [2] it was 87.4 nM.

The molecule `C=CC(=O)Nc1cc(Nc2cc(N3CC(C)(C)c4nc(C)ccc43)ccn2)c(OC)nc1N(C)CCN(C)C` [Example 15, N-(2-((2-(dimethylamino)ethyl) (methyl)amino)-6-methoxy-5-((4-(3,3,5-trimethyl-2,3-dihydro-1H-pyrrolo[3,2-b]pyridin-1-yl)pyridin-2-yl)amino)pyridin-3-yl)acrylamide] displayed a half-maximal inhibitory concentration (IC50) with A431 (EGFR-WT) of 815 nM. The GI50 in experiment [1] was 37 nM; in experiment [2], 74.8 nM.

`C=CC(=O)Nc1cc(Nc2ncnc(N3CC(C)(C)c4ncc(C)cc43)n2)c(OC)cc1N(C)CCN(C)C` [Example 16, N-(2-((2-(dimethylamino)ethyl) (methyl)amino)-4-methoxy-5-((4-(3,3,6-trimethyl-2,3-dihydro-1H-pyrrolo[3,2-b]pyridin-1-yl)-1,3,5-triazin-2-yl)amino)phenyl)acrylamide]: the IC50 in the experiment on A431 (EGFR-WT) came out at 47.7 nM. Also, the GI50 stood at 9.5 nM in experiment [1] and 27.7 nM in experiment [2].

For the molecule `C=CC(=O)Nc1cc(Nc2nccc(N3CC4(CCCCC4)c4nc(C)ccc43)n2)c(OC(F)F)cc1N(C)CCN(C)C` [Example 36, N-(4-(difluoromethoxy)-2-((2-(dimethylamino)ethyl)(methyl)amino)-5-((4-(5′-methylspiro[cyclohexane-1,3′-pyrrolo[3,2-b]pyridin]-1′(2′H)-yl)pyrimidin-2-yl)amino)phenyl)acrylamide], the GI50 amounted to 33.2 nM in experiment [1] and 51.5 nM in experiment [2].

Regarding `C=CC(=O)Nc1cc(Nc2ncnc(N3CC(C)(C)c4nc(C)ccc43)n2)c(OC(C)C)cc1N(C)CCN(C)C` [Example 37, N-(2-((2-(dimethylamino)ethyl) (methyl)amino)-4-isopropoxy-5-((4-(3,3,5-trimethyl-2,3-dihydro-1H-pyrrolo[3,2-b]pyridin-1-yl)-1,3,5-triazin-2-yl)amino)phenyl)acrylamide], the values for the GI50 in experiment [1] and in experiment [2] were 92.2 nM and 159 nM, respectively.

As for `C=CC(=O)Nc1cc(Nc2nccc(N3CC(C)(C)c4nc(C)ccc43)n2)c(OC(C)C)cc1N(C)CCN(C)C` [Example 38, N-(2-((2-(dimethylamino)ethyl) (methyl)amino)-4-isopropoxy-5-((4-(3,3,5-trimethyl-2,3-dihydro-1H-pyrrolo[3,2-b]pyridin-1-yl)pyrimidin-2-yl)amino)phenyl)acrylamide], the GI50 stood at 124 nM in experiment [1] and 266 nM in experiment [2].

For `C=CC(=O)Nc1cc(Nc2nccc(N3CC4(CCCC4)c4nc(C)ccc43)n2)c(OCC(F)(F)F)nc1N(C)CCN(C)C` [Example 49, N-(2-((2-(dimethylamino)ethyl) (methyl)amino)-5-((4-(5′-methyl-spiro[cyclopentane-1,3′-pyrrolo[3,2-b]pyridin]-1′(2′H)-yl)pyrimidin-2-yl)amino)-6-(2,2,2-trifluoroethoxy)pyridin-3-yl)acrylamide], the IC50 in the experiment on A431 (EGFR-WT) came out at 1020 nM. Moreover, the GI50 in experiment [1] was determined as 25.2 nM.

Regarding `C=CC(=O)Nc1cc(Nc2nccc(N3CC(C)(C)c4nc(-n5cncc5C)ccc43)n2)c(OC)cc1N(C)CCN(C)C` [Example 59, N-(5-((4-(3,3-dimethyl-5-(5-methyl-1H-imidazole-1-yl)-2,3-dihydro-1H-pyrrolo[3,2-b]pyridin-1-yl)pyrimidin-2-yl)amino)-2-((2-(dimethylamino)ethyl)(methyl)amino)-4-methoxyphenyl)acrylamide], the results for the GI50 in experiment [1] and in experiment [2] were 43.8 nM and 139 nM, respectively.

(Values after patent publication US20240109885A1, “2,3-DIHYDRO-1H-PYRROLO[3,2-B]PYRIDINE DERIVATIVE, PREPARATION METHOD THEREFOR, AND APPLICATION THEREOF” (Abbisko Therapeutics Co., Ltd, priority 2020, published 2024).)
